In US20240360126A1, “PYRAZOLO[3,4-B]PYRIDINE COMPOUNDS FOR THE TREATMENT OF AUTOIMMUNE DISEASE” (Hoffmann-La Roche Inc., priority 2021, published 2024) one finds IC50 data, which are given here for 14 molecules.

Structures are written as SMILES.

The target in the assay is T1, human TLR7 (Homo sapiens, UniProt Q9NYK1).
T1 construct: host or cells: HEK293 (HEK-Blue hTLR7)
T1 sequence (Q9NYK1 27-1049): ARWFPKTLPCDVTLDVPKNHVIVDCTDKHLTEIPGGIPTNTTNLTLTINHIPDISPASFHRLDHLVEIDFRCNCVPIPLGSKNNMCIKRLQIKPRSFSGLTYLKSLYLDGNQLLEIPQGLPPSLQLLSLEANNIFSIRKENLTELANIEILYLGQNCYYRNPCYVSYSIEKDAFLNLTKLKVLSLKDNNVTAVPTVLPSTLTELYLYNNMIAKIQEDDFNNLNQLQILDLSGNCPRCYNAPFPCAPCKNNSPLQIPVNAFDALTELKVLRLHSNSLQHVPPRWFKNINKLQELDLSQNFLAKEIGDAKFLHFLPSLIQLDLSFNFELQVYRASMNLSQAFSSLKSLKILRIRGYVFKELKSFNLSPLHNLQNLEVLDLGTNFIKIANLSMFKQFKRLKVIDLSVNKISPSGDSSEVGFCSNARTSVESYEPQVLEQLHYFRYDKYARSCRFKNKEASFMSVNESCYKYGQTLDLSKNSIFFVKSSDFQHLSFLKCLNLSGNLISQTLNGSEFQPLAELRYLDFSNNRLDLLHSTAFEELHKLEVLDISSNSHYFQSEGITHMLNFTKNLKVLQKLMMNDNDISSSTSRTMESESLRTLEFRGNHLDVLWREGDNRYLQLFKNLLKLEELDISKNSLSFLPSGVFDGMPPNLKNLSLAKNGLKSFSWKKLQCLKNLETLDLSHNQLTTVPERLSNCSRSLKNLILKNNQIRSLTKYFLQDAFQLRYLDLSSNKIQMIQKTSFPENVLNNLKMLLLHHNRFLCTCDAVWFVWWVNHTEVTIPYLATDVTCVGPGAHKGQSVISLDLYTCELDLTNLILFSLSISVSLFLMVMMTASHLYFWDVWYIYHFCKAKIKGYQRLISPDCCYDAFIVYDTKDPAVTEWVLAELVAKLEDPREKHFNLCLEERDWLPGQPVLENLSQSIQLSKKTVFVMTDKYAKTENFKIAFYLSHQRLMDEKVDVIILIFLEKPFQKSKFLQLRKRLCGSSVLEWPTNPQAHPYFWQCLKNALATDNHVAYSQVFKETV
Put plainly: HEK293-Blue-hTLR-7 cells assay. Format: cell-based. The following applies: HEK293-Blue-hTLR7 cells, R848 stimulation, 20 hrs; read-out: HEK/hTLR7 IC50. An excerpt: A stable HEK293-Blue-hTLR-7 cell line was purchased from InvivoGen (Cat. #: hkb-htlr7, San Diego, California, USA). These cells were originally designed for studying the stimulation of human TLR7 by monitoring the activation of NF-κB. A SEAP (secreted embryonic alkaline phosphatase) reporter gene was placed under the control of the IFN-β minimal promoter fused to five NF-κB and AP-1-binding sites. The SEAP was induced by activating NF-κB and AP-1 via stimulating HEK-Blue hTLR7 cells with TLR7 ligands. Therefore the reporter expression was declined by TLR7 antagonist under the stimulation of a ligand, such as R848 (Resiquimod), for incubation of 20 hrs. The cell culture supernatant SEAP reporter activity was determined using QUANTI-Blue™ kit (Cat. #: rep-qbl, Invivogen, San Diego, Ca, USA) at a wavelength of 640 nm, a detection medium that turns purple or blue in the presence of alkaline phosphatase.
HEK293-Blue-hTLR7 cells were incubated at a density of 250,000-450,000 cells/mL in a volume of 170 μL in a 96-well plate in Dulbecco's Modified Eagle's medium (DMEM) containing 4.5 g/L glucose, 50 U/mL penicillin, […] streptomycin, […] Normocin, […] L-glutamine, 10% […] heat-inactivated fetal bovine serum with addition of 20 μL test compound in a serial dilution in the presence of final DMSO at 1% and 10 μL of 20 μM R848 in above DMEM, perform incubation under 37° C. in a CO2 incubator for 20 hrs. Then 20 μL of the supernatant from each well was incubated with 180 μL Quanti-blue substrate solution at 37° C. for 2 hrs and the absorbance was read at […] using a spectrophotometer. The signaling pathway that TLR7 activation leads to downstream NF-κB activation has been widely accepted, and therefore similar reporter assay was modified for evaluating TLR7 antagonist.
Consider `Cc1cc(N2CC[C@@H](c3ncc(N4CCOC[C@@H](N)C4)cc3C)[C@H](C)C2)c2cnn(C)c2n1` [Example 28, (6S)-4-[6-[(3S,4R)-1-(1,6-dimethylpyrazolo[3,4-b]pyridin-4-yl)-3-methyl-4-piperidyl]-5-methyl-3-pyridyl]-1,4-oxazepan-6-amine], for which the IC50 was determined as 7 nM.
With `COC[C@H]1CN(c2cnc([C@@H]3CCN(c4cc(C)nc5c4cnn5C)C[C@H]3C)c(C)c2)CCN1` [Example 29, 4-[(3S,4R)-4-[5-[(3R)-3-(methoxymethyl)piperazin-1-yl]-3-methyl-2-pyridyl]-3-methyl-1-piperidyl]-1,6-dimethyl-pyrazolo[3,4-b]pyridine], the IC50 was determined as 5 nM.
As for `Cc1cc(N2CC[C@@H](c3ncc(N4CC[C@@H](N)[C@H](F)C4)cc3C)[C@H](C)C2)c2cnn(C)c2n1` [Example 31, (3R,4R)-1-[6-[(3S,4R)-1-(1,6-dimethylpyrazolo[3,4-b]pyridin-4-yl)-3-methyl-4-piperidyl]-5-methyl-3-pyridyl]-3-fluoro-piperidin-4-amine], the figure is 5 nM; as for `Cc1cc(N2CC[C@@H](c3ncc(N4CC(C)(N)C4)cc3C)[C@H](C)C2)c2cnn(C)c2n1` [Example 32, 1-[6-[(3S,4R)-1-(1,6-dimethylpyrazolo[3,4-b]pyridin-4-yl)-3-methyl-4-piperidyl]-5-methyl-3-pyridyl]-3-methyl-azetidin-3-amine], 8 nM; as for `Cc1cc(N2CC[C@@H](c3ncc(N4C[C@H]5NCCO[C@@H]5C4)cc3C)[C@H](C)C2)c2cnn(C)c2n1` [Example 33, (4aR,7aR)-6-[6-[(3S,4R)-1-(1,6-dimethylpyrazolo[3,4-b]pyridin-4-yl)-3-methyl-4-piperidyl]-5-methyl-3-pyridyl]-3,4,4a,5,7,7a-hexahydro-2H-pyrrolo[3,4-b][1,4]oxazine], 11 nM.
The same measure for `Cc1cc(N2CC[C@@H](c3ccc(N4CCNCC4)cn3)[C@H](C)C2)c2cnn(C)c2n1` [Example 34, 1,6-dimethyl-4-[(3S,4R)-3-methyl-4-(5-piperazin-1-yl-2-pyridyl)-1-piperidyl]pyrazolo[3,4-b]pyridine]: 82 nM.
The same measure for `Cc1cc(N2CC[C@H](c3ccc(N4CCNCC4)cn3)[C@@H](C)C2)c2cnn(C)c2n1` [Example 35, 1,6-dimethyl-4-[(3R,4S)-3-methyl-4-(5-piperazin-1-yl-2-pyridyl)-1-piperidyl]pyrazolo[3,4-b]pyridine]: 6 nM; for `CO[C@@H]1CN(c2ccc([C@H]3CCN(c4cc(C)nc5c4cnn5C)C[C@@H]3C)nc2)C[C@H]1N` [Example 36, (3R,4R)-1-[6-[(3R,4S)-1-(1,6-dimethylpyrazolo[3,4-b]pyridin-4-yl)-3-methyl-4-piperidyl]-3-pyridyl]-4-methoxy-pyrrolidin-3-amine]: 18 nM.
For the molecule `COC[C@H]1CN(c2ccc([C@H]3CCN(c4cc(C)nc5c4cnn5C)C[C@@H]3C)nc2)CCN1` [Example 37, 4-[(3R,4S)-4-[5-[(3R)-3-(methoxymethyl)piperazin-1-yl]-2-pyridyl]-3-methyl-1-piperidyl]-1,6-dimethyl-pyrazolo[3,4-b]pyridine], the IC50 was determined as 9 nM.
As for `Cc1cc(N2CC[C@H](c3ccc(N4CC5(CNCCO5)C4)cn3)[C@@H](C)C2)c2cnn(C)c2n1` [Example 38, 2-[6-[(3R,4S)-1-(1,6-dimethylpyrazolo[3,4-b]pyridin-4-yl)-3-methyl-4-piperidyl]-3-pyridyl]-5-oxa-2,8-diazaspiro[3.5]nonane], the figure is 13 nM; as for `CO[C@H]1CN(c2ccc([C@H]3CCN(c4cc(C)nc5c4cnn5C)C[C@@H]3C)nc2)CC[C@@H]1N` [Example 39, (3S,4S)-1-[6-[(3R,4S)-1-(1,6-dimethylpyrazolo[3,4-b]pyridin-4-yl)-3-methyl-4-piperidyl]-3-pyridyl]-3-methoxy-piperidin-4-amine], 12 nM; as for `Cc1cc(N2CC[C@H](c3ccc(N4CCOC[C@@H](N)C4)cn3)[C@@H](C)C2)c2cnn(C)c2n1` [Example 40, (6S)-4-[6-[(3R,4S)-1-(1,6-dimethylpyrazolo[3,4-b]pyridin-4-yl)-3-methyl-4-piperidyl]-3-pyridyl]-1,4-oxazepan-6-amine], 9 nM.
As for `Cc1cc(N2CC[C@H](c3ccc(N4CC[C@@H](N)[C@H](F)C4)cn3)[C@@H](C)C2)c2cnn(C)c2n1` [Example 41, (3R,4R)-1-[6-[(3R,4S)-1-(1,6-dimethylpyrazolo[3,4-b]pyridin-4-yl)-3-methyl-4-piperidyl]-3-pyridyl]-3-fluoro-piperidin-4-amine], the figure is 6 nM; as for `Cc1cc(N2CC[C@H](c3ccc(N4CC(C)(N)C4)cn3)[C@@H](C)C2)c2cnn(C)c2n1` [Example 43, 1-[6-[(3R,4S)-1-(1,6-dimethylpyrazolo[3,4-b]pyridin-4-yl)-3-methyl-4-piperidyl]-3-pyridyl]-3-methyl-azetidin-3-amine], 16 nM.
